Patent US8343539B2, “Compounds that bind α5β1 integrin and methods of use” (Regents of the University of Minnesota, priority 2006, dated 2013)
“Also recorded” adds a separate entry of the source. Where no end group is shown, it is not given here. (C16)2 = not defined here

How the values were obtained:
HUVECs [1] = test: HUVEC spreading on substrates (cell area); format: cell-based, human
Experimental: Cell spreading and fibronectin production experiments: Surface transferring, cell seeding, and incubation were done in the same manner as in the adhesion experiment, with a cell density of 497 cells/mm^2, and incubation times of 1, 12, 24, 48, and 72 hour. At the end of each incubation, the surfaces were removed, washed with […] of PBS, and fixed in 1 ml of 4% paraformaldehyde (Sigma) in PBS for 15 minutes at 37° C., 5% CO2. After washing with PBS, surfaces were first labeled for secreted fibronectin: surfaces were subjected to a blocking solution (0.1% BSA in PBS) for 30 minutes, incubated for 1 hour with a primary antibody specific for secreted fibronectin (mouse anti-human fibronectin (P1H11) monoclonal antibody (Chemicon Int.) at a 1:500 dilution in blocking solution, and then for 45 minutes with a secondary antibody (IgG fluorescein (FITC) conjugated antibody; Chemicon Int.) at a 1:200 dilution in PBS. As a final step, cell membranes and nuclei were stained using the Image-iT™ LIVE Plasma Membrane and Nuclear Labeling Kit following the manufacturer's protocol for labeling fixed cells (Molecular Probes). After final washing, surfaces were mounted onto glass slides and stored at 4° C. protected from light. An inverted fluorescent microscope (Nikon Eclipse TE200 with Pixcell II LCM) was used for imaging. Fibronectin production was assessed visually, by comparing 10-20 fluorescence images from two samples for each substrate (two independent experiments performed at different days). Cell spreading was quantified from two samples per substrate (two independent experiments performed at different days) by measuring cell area with the NIH imaging software.

CT26.WT cells = test: Blocking of liposome binding with free PR_b peptide-amphiphile (flow cytometry); format: cell-based, mouse; settings: free peptide-amphiphile 200 μg/ml, 1 hr pre-incubation, 4° C.
Experimental: Flow cytometry: CT26.WT confluent cell monolayers were trypsinized (0.25% Trypsin+0.1% EDTA) and resuspended in ice-cold FB (fluorescent buffer: phosphate buffered saline (PBS) supplemented with 0.02% sodium azide and 2.5% fetal bovine serum) containing liposomes at a lipid concentration of 250 μM and a cell concentration of 1 million/ml in 15 ml centrifuge tubes. Tubes were incubated at 4° C. or 37° C. over a rotary shaker for the specified duration of time. Cells were then pelleted and washed twice in FB. Flow cytometric analysis was carried out immediately. For peptide blocking experiments, the protocol specified above was used except cells were incubated with 200 μg/ml of free peptide-amphiphile in FB for one hour prior to incubating the cells with the liposomes. For integrin α5β1 expression studies, CT26.WT confluent cell monolayers were trypsinized (0.25% Trypsin+0.1% EDTA) and resuspended in ice-cold FB at a cell concentration of 1 million/ml in 15 ml centrifuge tubes. Tubes were incubated at 4° C. with primary antibody (anti-integrin α5β1) or goat isotype control (goat IgG) over a rotary shaker for 35 min. Cells were then pelleted and washed twice in FB and then incubated again with the secondary antibody (anti-goat IgG FITC conjugated) for 35 min. Finally, cells were pelleted and washed twice. Flow cytometric analysis was carried out immediately. […]

HUVECs [2] = test: HUVEC adhesion on LB membranes of peptide-amphiphiles (Example 1); format: cell-based, human; settings: no serum; for HUVEC adhesion compared to FN: seeded 497 cells/mm^2
Description: Surface preparation: Peptide-amphiphiles, listed in Table 1, were synthesized as described in the literature (Berndt et al., J. Am. Chem. Soc., 1995; 117:9515-9522). Langmuir-Blodgett (LB) membranes constructed from peptide-amphiphiles were deposited onto 15 mm mica disks as described elsewhere (Kokkoli et al., Langmuir, 2004; 20:2397-2404). Shortly before cell assays, the LB films were transferred into 24-well plates containing 1× phosphate buffered saline (PBS) solution (Mediatech), without exposing surfaces to air, as they rearrange to form multilayers (Hansma et al., Method. Cell Biol., 2002; 69:163-193). After equilibrating for 5-10 minutes, PBS was exchanged with 1 ml of MCDB-131 basal media (Sigma) supplemented with 0.1% bovine serum albumin (BSA) (Sigma) and antibiotics (Sigma) (2.5 μg/ml gentamicin, 2.5 μg/ml amphotericin B, 50 U/ml penicillin, and 50 μg/ml streptomycin), referred to as 0.1% BSA media. Surfaces were equilibrated at 37° C., 5% CO2 for 30-60 minutes before adding the cells. Human fibronectin-coated round coverslips (FN) 22 mm in diameter (BD Biosciences) were put into 12-well plates and 2 ml of 0.1% BSA media was added to each well. Surfaces were equilibrated for 30-60 minutes at 37° C., 5% CO2.
Cell culture: Human umbilical vein endothelial cells, HUVECs, (Cambrex Corporation) were cultured in MCDB-131 containing 20% fetal bovine serum (FBS) (Atlas Biologicals) at 37° C., 5% CO2. Other nutrients and antibiotics supplementing the media were added based on an optimal HUVEC proliferation study (Terramani et al., In Vitro Cell Dev. Biol.—Animal, 2000; 36:125-132). Media was changed in the culture flasks every other day. Cells used for adhesion and imaging studies were in passages 3-4.
Cell adhesion experiments: After cells became 90% confluent they were washed with PBS, trypsinized with 0.25% Trypsin-EDTA (Cambrex Corporation), neutralized with MCDB-131 with 2% FBS, and spun at 1000 rpm for 10 minutes. The supernatant was removed and the cell pellet was resuspended in 0.1% BSA media. Cells were counted with a hemocytometer and seeded onto LB and FN surfaces at a density of 497 cells/mm^2. Surfaces were incubated with cells in 0.1% BSA media at 37° C., 5% CO2, for 1, 4, 12, 24, 48, and 72 hours. Cell adhesion was quantified using the CyQuant Cell Proliferation Assay Kit, with a dye that binds to cellular nucleic acids, following the manufacturer's protocol (Molecular Probes). A calibration standard curve was created for each experiment. The plates were read on a SpectraMAX GeminiXS (Molecular Devices).

HUVECs [3] = test: Actin cytoskeleton and focal adhesion staining; format: cell-based, human; settings: 1-72 hours
Experimental: Actin cytoskeleton and focal adhesion staining: Surface transferring, cell seeding, incubation, and fixing were done as described above. Staining for the actin cytoskeleton, focal adhesions, and nucleus of attached cells was done using the Actin Cytoskeleton and Focal Adhesion Staining Kit following the manufacturer's protocol (Chemicon Int.) and using 1:350 dilution for anti-vinculin antibody, 1:200 for the secondary antibody, approximately 1:1000 dilution (equivalent to 1 unit/surface) for TRITC-conjugated phalloidin and 1:1000 for DAPI. After washing, surfaces were mounted onto glass slides and stored at 4° C. protected from light. A confocal microscope (BIORAD Multiphoton Confocal 1024) was used for imaging.

What does the source list for “(C16)2-Glu-C2-KSSPHSRNSGSGSGSGSGRGDSP ({(C16)2-Glu-C2}-KSSPHSRNSGSGSGSGSGRGDSP; not fully specified; reading uncertain) [PR_b]”?
HUVEC spreading (cell area) (HUVECs [1]; 1-24 hours): mostly spread; HUVEC spreading, rank among surfaces (HUVECs [1]; all times examined, 1-72 hours): spread the most; Blocking of binding of PR_b and GRGDSP targeted stealth liposomes (low PEG2000) to CT26.WT cells (CT26.WT cells): completely blocks the binding; also recorded: completely blocked; HUVEC adhesion compared to FN (HUVECs [2]; 1-24 hours): higher adhesion than FN; Ability of substrate to sustain HUVEC adhesion over time (HUVECs [2]; 1-72 hours): effectively adhered; HUVEC adhesion compared to the other peptide surfaces (HUVECs [2]; 1-72 hours): most promising sequence; also recorded: outperformed all other peptide substrates; also recorded: outperforms all other peptide surfaces; HUVEC adhesion compared to FN (HUVECs [2]; 48-72 hours): similar; also recorded: equivalent; Actin stress fibers and focal contacts (HUVECs [3]): displayed actin stress fibers and focal contacts; Cytoskeletal organization and focal adhesion compared to FN (HUVECs [3]): better-developed cytoskeletal structure compared to FN; also recorded: stronger cytoskeletal organization and focal adhesion formation
